In US10052304B2, “Compositions and methods for cancer therapy” (UNIVERSITY OF IOWA RESEARCH FOUNDATION, priority 2015, dated 2018):
“Also recorded” adds a separate entry of the source.

What was measured:
NCI-H292 xenografts = test system: NCI-H292 xenografts
Method: Nude mice were injected with NCI-H292 cells into their flanks and tumors grown to a diameter of 2-4 mm.
(§1) Female 4-6 week old female athymic-nu/nu mice were purchased from Envigo (previously Harlan Laboratories) and housed in the Animal Care Facility at the University of Iowa (Iowa City, Iowa), and all procedures were approved by the University of Iowa Institutional Animal Care and Use Committee and conformed to NIH guidelines. 1×10^6 H292 or U87 cells were injected subcutaneously into the right rear flank and mice were euthanized and sacrificed when tumor length exceeded 1.5 cm in any dimension. Treatment regimens were as described in the text and are summarized in the Supplemental Experimental Procedures.
as §1, with “flank. […] Tumors were measured every other day with Vernier calipers (volume=(length×width×(width/2))” for “flank”, “dimension.” for “dimension. Treatment regimens were as described in the text and are summarized in the Supplemental Experimental Procedures.”

[1] = test system: advanced stage NSCLC patients; test: Phase II clinical trial of pharmacological ascorbate with carboplatin and paclitaxel in advanced stage NSCLC; assay type: in vivo, human
Method: This phase II clinical trial was registered with clinicaltrials.gov (NCT 02420314) prior to enrollment of the first subject. Newly diagnosed advanced stage NSCLC patients were invited to participate.
Whole blood was collected from patients around infusions.
(§2) We have not seen any unexpected or unusual increase in Grade 3/4 toxicities as compared to previously published literature, although it remains too early for a direct comparison. Responses to therapy were determined per RECIST 1.1 criteria (Eisenhauer et al., 2009). Currently, four of six patients have completed the trial with imaging-confirmed partial responses to therapy. […] Finally, one patient progressed with a new spinal lesion, although the target lesions are stable; this patient has been transitioned off of the trial.
as §2, with “This phase II clinical trial was registered with clinicaltrials.gov (NCT 02420314) prior to enrollment of the first subject. Newly diagnosed advanced stage NSCLC patients were invited to participate. […] We” for “We”, “a total” for “four”, “eleven subjects have been recruited to the trial, seven of which are currently evaluable for response. Five of seven” for “six”

HBEpC = settings: 1 h ascorbate + 5 μM carboplatin + 2 Gy IR
Method: (§3) After treatment, cells were washed with PBS and clonogenic assay was completed in their respective media as previously described (Fath et al., 2011). Treatment conditions for individual experiments are as described in the figure legends and summarized in the Supplemental Experimental Procedures.
(§4) 1-2×10^5 cells were plated in 60 mm cell culture dishes and grown in their respective media for 48 h before exposed to experimental conditions. […] For AdGPx1 experiments, cells were supplemented with 50 nM sodium selenite following transduction and throughout clonogenic growth. […] After treatment, cells were washed with PBS and clonogenic assay was completed in their respective media. Briefly, floating and attached cells were collected and total cells per plate were counted. An experimentally derived number of cells were plated into each well of a 6-well cell culture plate in their respective media. For HEL92.1.7 suspension cells, cells were seeded in a top layer of 0.4% (w/v) agarose to allow for quantifiable colony formation. After sufficient time (7-12 days, cell type-dependent), cells were fixed in 70% ethanol and stained with a Brilliant Blue methanol solution. […] Normalized survival fractions were calculated by comparing plating efficiencies of each treatment group against the control group within a given experiment.

NHA = settings: 1 h ascorbate + 25 μM temozolomide + 2 Gy IR
Method: as §3, §4

ETC complex I = ETC complex I activity after ascorbate exposure; assay type: cell-based, human; settings: 15 pmol cell^−1 ascorbate for 1 h, NSCLC cell lysates
Method: (§5) Exponentially growing cells were scraped and frozen as dry pellets until assayed for total activity. Aconitase activity was measured as the rate of appearance of NADPH (at 340 nm; Beckman DU 800 spectrophotometer, Brea, Calif.) for 45 min during the reaction of 200 μg total sample protein with 200 μM NADP^+ and 10 U isocitrate dehydrogenase as previously described (Case et al., 2011). Maximal ETC complex activity was measured as previously described (Birch-Machin et al., 1994). Complex I activity was quantified as the rate of rotenone-inhibitable NADH oxidation (320 nm; c=6.22 mM^−1 cm^−1). Complex II activity as the difference in the rate of DCIP reduction in the presence and absence of succinate (at 600 nm; ε=19.1 mM^−1 cm^−1). Complex IV activity was assayed as the rate of oxidation of cytochrome c ([…]; ε=19.6 mM^−1 cm^−1). Rates of activities were normalized to total protein by Lowry.
(§6) Exponentially growing cells were scraped and frozen as dry pellets until assayed for protein content (Lowry) and maximal ETC complex activity as previously described (Birch-Machin et al., 1994). Briefly, dry cell pellets were resuspended in 20 mM potassium phosphate buffer and sonicated 3×10 s each. Rates of activities were normalized to total protein. Complex I activity was quantified as the rate of rotenone-inhibitable NADH oxidation (320 nm; ε=6.22 mM-1 cm-1). […]

ETC complex II = ETC complex II activity after ascorbate exposure; assay type: cell-based, human; settings: 15 pmol cell^−1 ascorbate for 1 h, NSCLC cell lysates
Method: as §5, §6

[2] = first six patients, ascorbate 75 g twice weekly + carboplatin/paclitaxel

## O=C1O[C@H]([C@@H](O)CO)C(O)=C1O [ascorbate, L-ascorbic acid]
NCI-H292 xenografts; Example 1: ascorbate 4 g/kg IP daily + 12 Gy/6fx IR + weekly 15 mg/kg carboplatin vs chemo-radiation alone
  survival of xenograft-bearing mice: survived significantly longer
NCI-H292 xenografts; Example 1: ascorbate 4 g/kg IP daily, alone or with chemo-radiation
  tolerability (lack of weight loss): well-tolerated
NCI-H292 xenografts; Example 4: ascorbate 4 g kg^−1 IP daily
  tolerability (mouse weight): well tolerated
NCI-H292 xenografts; Example 4: ascorbate 4 g kg^−1 IP daily + 12 Gy IR/2 fractions + weekly 15 mg kg^−1 CPL
  overall survival: significantly increased overall survival
[1]; after 75 g IV infusions
  patient plasma ascorbate level: 16.4 ± 0.5 mM
[1]; ascorbate + carboplatin/paclitaxel, evaluable patients to date
  patients with imaging-confirmed partial responses (RECIST 1.1): four of six; also recorded: Five of seven
[1]; [2]
  disease control rate: 83%
  objective response rate: 67%
[1]; through 134 total infusions
  grade 3/4 toxicities attributed to ascorbate: no grade 3/4 toxicities attributed to ascorbate
HBEpC
  sensitization to carboplatin + IR (clonogenic survival): not
NHA
  sensitization to temozolomide + IR (clonogenic survival): not
ETC complex I
  ETC complex I activity: inactivation
ETC complex II
  ETC complex II activity: inactivation
